# Data: paper PMC9966578, “Barbamide Displays Affinity for Membrane-Bound Receptors and Impacts Store-Operated Calcium Entry in Mouse Sensory Neurons” (Marine Drugs, 2023)
# Experiments:
# Experiment in all cases: radioligand binding assay (NIMH PDSP), secondary screen
# [1] = biological target: T1, dopamine D3 receptor (D3R) (Homo sapiens, UniProt P35462)
# T1 construct: gene DRD3
# [2] = biological target: T2, dopamine transporter (DAT) (Homo sapiens, UniProt Q01959)
# T2 construct: gene SLC6A3
# T2 sequence (Q01959 whole entry): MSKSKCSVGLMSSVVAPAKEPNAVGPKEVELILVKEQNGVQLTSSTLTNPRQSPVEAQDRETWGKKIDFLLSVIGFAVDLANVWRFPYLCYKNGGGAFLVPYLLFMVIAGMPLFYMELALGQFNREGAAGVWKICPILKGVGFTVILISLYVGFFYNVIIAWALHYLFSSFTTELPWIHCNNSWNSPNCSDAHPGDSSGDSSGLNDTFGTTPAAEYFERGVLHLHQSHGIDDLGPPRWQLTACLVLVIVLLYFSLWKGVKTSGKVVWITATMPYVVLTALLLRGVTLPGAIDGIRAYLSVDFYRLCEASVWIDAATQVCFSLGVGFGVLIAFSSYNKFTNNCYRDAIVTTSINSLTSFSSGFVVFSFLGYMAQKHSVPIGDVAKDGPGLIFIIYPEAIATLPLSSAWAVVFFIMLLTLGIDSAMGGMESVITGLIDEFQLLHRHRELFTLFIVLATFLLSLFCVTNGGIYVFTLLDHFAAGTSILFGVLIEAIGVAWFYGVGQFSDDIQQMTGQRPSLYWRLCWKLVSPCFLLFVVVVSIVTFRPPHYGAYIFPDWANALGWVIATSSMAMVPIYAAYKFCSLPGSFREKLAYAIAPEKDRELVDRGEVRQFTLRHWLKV
# [3] = biological target: T3, kappa opioid receptor (KOR) (Homo sapiens, UniProt P41145)
# T3 construct: gene OPRK1
# T3 sequence (P41145 whole entry): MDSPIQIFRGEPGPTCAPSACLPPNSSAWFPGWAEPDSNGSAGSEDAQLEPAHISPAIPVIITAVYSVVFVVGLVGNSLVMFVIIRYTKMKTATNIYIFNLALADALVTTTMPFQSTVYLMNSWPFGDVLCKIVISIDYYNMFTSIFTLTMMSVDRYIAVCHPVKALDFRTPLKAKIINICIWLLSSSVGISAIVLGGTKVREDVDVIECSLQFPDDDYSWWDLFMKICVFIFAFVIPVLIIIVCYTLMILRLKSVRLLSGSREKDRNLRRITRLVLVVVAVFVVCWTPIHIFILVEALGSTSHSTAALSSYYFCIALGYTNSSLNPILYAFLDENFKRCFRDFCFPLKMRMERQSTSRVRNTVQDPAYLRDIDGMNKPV
# T1 sequence (P35462 whole entry): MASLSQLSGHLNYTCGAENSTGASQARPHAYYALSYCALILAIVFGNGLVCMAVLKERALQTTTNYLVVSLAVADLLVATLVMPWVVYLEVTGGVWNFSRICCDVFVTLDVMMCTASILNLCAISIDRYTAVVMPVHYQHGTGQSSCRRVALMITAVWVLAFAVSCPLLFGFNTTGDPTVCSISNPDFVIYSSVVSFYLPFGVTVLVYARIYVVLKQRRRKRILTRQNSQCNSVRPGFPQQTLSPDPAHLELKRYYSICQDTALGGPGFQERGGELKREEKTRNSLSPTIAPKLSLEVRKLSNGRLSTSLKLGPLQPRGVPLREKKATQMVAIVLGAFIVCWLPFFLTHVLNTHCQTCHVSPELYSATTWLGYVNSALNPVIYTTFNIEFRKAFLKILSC
smiles,measurement,setting,value
"CO/C(=C/C(=O)N(C)C(Cc1ccccc1)c1nccs1)CC(C)C(Cl)(Cl)Cl (stereo not drawn) [compound 1, barbamide]",Ki,[1],446 nM
same,Ki,[2],3100 nM
same,Ki,[3],79.1 nM
